Laboratory results: paper PMC6414029, “Utilisation of the Prestwick Chemical Library to identify drugs that inhibit the growth of mycobacteria” (PLoS ONE, 2019)
pIC50: −log10 of the molar value. In brackets after ≈: the same amount, converted by molar mass. Where a name gives a salt, the structure may show the parent alone. Read-outs that look alike come from different tables or passages of the source.

Legend:
[1] = tested on: M. smegmatis; test: microbe, parasite or virus in culture; format: cell-based, Mycobacterium smegmatis; details: liquid medium
[2] = tested on: M. smegmatis; test: MIC determination on solid agar; format: cell-based, Mycobacterium smegmatis; details: for MIC: read-out: Solid MIC
Procedure: Drugs were diluted from a 10mM stock, mixed individually in 2 mLs of molten 7H10 agar and dispensed in square partitioned petri plates. Plates were incubated at 37°C and solid MIC was determined based on absence of colonies.

[3] = tested on: BCG; test: microbe, parasite or virus in culture; format: cell-based, Mycobacterium bovis BCG; details: for MIC: Mycobacterium tuberculosis variant bovis BCG
[4] = tested on: BCG; test: microbe, parasite or virus in culture; format: cell-based, Mycobacterium bovis BCG; details: for MIC: Mycobacterium tuberculosis variant bovis BCG, BCG, read-out: Liquid MIC
[5] = tested on: M. tuberculosis H37Rv; test: Alamar Blue (resazurin) MIC assay; format: cell-based, Mycobacterium tuberculosis; details: liquid growth media
Procedure: To investigate the effects of repurposed compounds on growth of M. tuberculosis H37Rv using an Alamar Blue based MIC assay using the resazurin reagent. This assay was performed in 7H9 medium containing Middlebrook broth and 0.5% glycerol and supplemented with oleic acid, albumin, dextrose, and catalase. Clear- 96-well plates were inoculated with 100 μL of drug diluted with 90 μl of 7H9 medium and 10 μL DMSO. Serial 3-fold dilutions of each drug in 100 μL of 7H9 medium were prepared at various ranges. Growth controls containing no antibiotic and sterility controls without inoculation were also included. 200 μL of sterile deionized water was added to the outer perimeter wells to prevent evaporation during plate incubation. Plates were incubated plate at 37°C for 3–4 days. After incubation, the plates were removed and 10 μL of resazurin (0.02% w/v) was added to each well that contained bacteria. Assay plates were reincubated at 37°C for 24–48 hours and visually assessed for colour development. OD 570 nm readings were taken to provide further quantitation provide an interpretation of the dose response of the bacterium to repurposed compounds.

[6] = tested on: HepG2 cells; test: HepG2 cytotoxicity assay (CellTitre-Glo); format: cell-based
Procedure: Actively growing HepG2 cells were removed from a T-175 tissue culture flask with 5 mL of Eagle’s MEM containing 10% FBS/1%NEAA/1% Penicillin and Streptomycin) and mixed with gentle pipetting. […] The cell suspension was added to 250 mL of the same medium at a final density of […]. […] Plates were allowed to incubate at 37°C at a relative humidity of 80% and 5% CO2 for 48 hours. After incubation, the plates were allowed to equilibrate at room temperature for 30 mins before 25 μL of CellTitre-Glo (Promega) reagent was added to each well using a multichannel pipette. Plates were left at room temperature for 30 mins before relative luminescence was read using a BMG Labtech POLARstar Omega plate reader.

[7] = tested on: BCG over-expressing EchA12; test: microbe, parasite or virus in culture; format: cell-based, Mycobacterium bovis BCG
[8] = tested on: BCG over-expressing AroB; test: microbe, parasite or virus in culture; format: cell-based, Mycobacterium bovis BCG
[9] = tested on: M. smegmatis; format: cell-based, Mycobacterium smegmatis; details: 20 μM compound, 48 hr read, GFP fluorescence
[10] = tested on: BCG; format: cell-based, Mycobacterium bovis BCG
[11] = Mycolicibacterium smegmatis, M. smegmatis, 7H10 solid agar, absence of colonies
[12] = read-out: Solid MIC, BCG, 7H10 solid agar, absence of colonies
[13] = read-out: Solid MIC, BCG, solid agar, values given in mM
[14] = M. smegmatis, 7H10 solid agar, absence of colonies

## CCCCC(CC)CNC(=N)NC(=N)NCCCCCCNC(=N)NC(=N)NCC(CC)CCCC (stereo not shown) [Alexidine]
[1]; Mycolicibacterium smegmatis
  MIC: 6.15 µM (≈ 3.13 µg/mL)

## CN1CCc2cccc3c2[C@H]1Cc1ccc(O)c(O)c1-3 [Apomorphine]
[1]
  MIC: 241.7 µM (≈ 64.6 µg/mL)
[2]; [11]
  MIC: 625 µM (≈ 167 µg/mL)

## COc1ccc(CCN2CCC(Nc3nc4ccccc4n3Cc3ccc(F)cc3)CC2)cc1 [Astemizole]
[3]; [12]
  MIC: 0.05 mM (≈ 22.9 µg/mL)
[3]; [13]
  MIC: ~0.05 mM (≈ 22.9 µg/mL)
[4]
  Liquid MIC: 17.78 µM
  MIC: 17.8 µM (≈ 8.16 µg/mL)

## CC(=O)OC[C@H]1O[C@@H]([S-])[C@H](OC(C)=O)[C@@H](OC(C)=O)[C@@H]1OC(C)=O.CCP(CC)CC.[Au+] [Auranofin]
[5]
  MIC: 0.27 µM
[1]
  MIC: 0.51 µM
[6]; 48 hours
  pIC50: 5.52
[2]; M. smegmatis
  Solid MIC relative to liquid MIC: 12 fold
[2]; [14]
  MIC: 6.0 µM

## [H]/N=C(\N/C(=N/[H])NCCCCCCNC(=N)NC(=N)Nc1ccc(Cl)cc1)Nc1ccc(Cl)cc1 [Chlorhexidine]
[1]; Mycolicibacterium smegmatis
  MIC: 1.98 µM (≈ 1 µg/mL)
[1]
  MIC: 1.95 µM (≈ 0.986 µg/mL)
[2]; [11]
  MIC: 16 µM (≈ 8.09 µg/mL)

## CCN(CC)CCOc1ccc(C(=C(Cl)c2ccccc2)c2ccccc2)cc1 [Clomiphene citrate]
[5]; Mycobacterium tuberculosis
  MIC: 7.59 µM
[1]; Mycolicibacterium smegmatis
  MIC: 9.03 to 26.6 µM
[1]
  MIC: 9.03 µM
[2]; [11]
  MIC: 37.5 µM

## O=c1c2ccccc2[se]n1-c1ccccc1 [Ebselen]
[5]; Mycobacterium tuberculosis
  MIC: 18.5 µM (≈ 5.08 µg/mL)
[1]; Mycolicibacterium smegmatis
  MIC: 10.3 µM (≈ 2.82 µg/mL)
[6]; Homo sapiens, HepG2, 48 hours
  pIC50: 4.35

## CC(NCCC(c1ccccc1)c1ccccc1)c1ccccc1 (stereo not shown) [Fendiline hydrochloride]
[1]; Mycolicibacterium smegmatis
  MIC: 77 to 828 µM
[1]
  MIC: 77.57 µM
[2]; [11]
  MIC: 15.6 µM

## CS(=O)(=O)c1ccc([C@@H](O)[C@@H](CF)NC(=O)C(Cl)Cl)cc1 [Florfenicol]
[3]
  Solid MIC relative to liquid MIC: 5 fold
[3]; 7H10 solid agar, absence of colonies, listed as Florfenciol
  Solid MIC: 6 µM
[3]; [12]
  MIC: ~0.005 mM (≈ 1.79 µg/mL)
[5]; Mycobacterium tuberculosis
  MIC: 25.4 µM (≈ 9.1 µg/mL)
[6]; Homo sapiens, HepG2, 48 hours
  pIC50: < 3.60
[4]
  Liquid MIC: 0.67 µM
  MIC: 0.7 µM (≈ 0.251 µg/mL)
[7]
  MIC in the absence of EchA12 over-expression, compared with wild-type BCG: unchanged
[7]; Mycobacterium tuberculosis variant bovis BCG, BCG, read-out: MIC upon over-expression of EchA12
  MIC: > 12 µM

## O=C1NCN(c2ccccc2)C12CCN(CCCC(c1ccc(F)cc1)c1ccc(F)cc1)CC2 [Fluspirilene]
[1]
  MIC: 827.5 µM (≈ 394 µg/mL)

## Fc1ccc(C(OCCN2CCN(CCCc3ccccc3)CC2)c2ccc(F)cc2)cc1 [GBR 12909, Vanoxerine]
[3]; [12]
  MIC: 0.0282 mM (≈ 12.7 µg/mL)
[5]; Mycobacterium tuberculosis
  MIC: 26.6 µM (≈ 12 µg/mL)
[1]; Mycolicibacterium smegmatis
  MIC: 18.6 µM (≈ 8.38 µg/mL)
[6]; Homo sapiens, HepG2, 48 hours
  pIC50: 4.26
[8]
  MIC in the absence of AroB over-expression, compared with wild-type BCG: unchanged
[8]; Mycobacterium tuberculosis variant bovis BCG, BCG, read-out: MIC upon over-expression of AroB
  MIC: > 50 µM
[2]; [11]
  MIC: 62.5 µM (≈ 28.2 µg/mL)
[4]
  MIC: 20.5 µM (≈ 9.24 µg/mL)

## Cc1cnc(C(=O)NCCc2ccc(S(=O)(=O)NC(=O)NC3CCCCC3)cc2)cn1 [Glipizide]
[4]
  Liquid MIC: 191.10 µM
  MIC: 191 µM (≈ 85.1 µg/mL)

## CN1C2CCCC1CC(NC(=O)c1nn(C)c3ccccc13)C2 (stereo not shown) [Granisteron, Granisetron]
[3]; [12]
  MIC: ≥ 0.5 mM
[3]; [13]
  MIC: > 0.5 mM
[4]
  Liquid MIC: 210.60 µM
  MIC: 211 µM (≈ 65.8 µg/mL)

## CO[C@@H]1[C@@H](O[C@@H]2O[C@H](C)[C@@H](O[C@H]3C[C@@](C)(O)[C@@H](OC(=O)CC(C)C)[C@H](C)O3)[C@H](N(C)C)[C@H]2O)[C@@H](CC=O)C[C@@H](C)[C@@H](O)/C=C/C=C/C[C@@H](C)OC(=O)C[C@H]1OC(C)=O [Josamycin]
[3]; [12]
  MIC: > 0.1 mM
[4]
  Liquid MIC: 0.10 µM
  MIC: 0.1 µM (≈ 0.0828 µg/mL)

## C=C1c2c(Cl)ccc(O)c2C(=O)C2=C(O)[C@]3(O)C(=O)C(C(N)=O)=C(O)[C@@H](N(C)C)[C@@H]3[C@@H](O)[C@H]12 [Meclocyline sulfosalicylate, meclocycline sulfosalicylate]
[1]; Mycolicibacterium smegmatis
  MIC: 0.1 µM (≈ 0.0477 µg/mL)
[2]; [14]
  MIC: 0.20 µM (≈ 0.0954 µg/mL)
[2]; Mycolicibacterium smegmatis
  MIC: 0.2 µM (≈ 0.0954 µg/mL)

## COC(=O)C1=C(C)NC(C)=C(C(=O)OCC(C)C)C1c1ccccc1[N+](=O)[O-] (stereo not shown) [Nisoldipine]
[1]
  MIC: 396.2 µM (≈ 154 µg/mL)
[2]; [11]
  MIC: 100 µM (≈ 38.8 µg/mL)

## CN(C)CC/C=C1/c2ccccc2COc2ccc(CC(=O)O)cc21 [Olopatadine]
[3]; [12]
  MIC: ≥ 0.5 mM
[3]; [13]
  MIC: > 0.5 mM
[4]
  Liquid MIC: 202.30 µM
  MIC: 202 µM (≈ 68.3 µg/mL)

## N=C(N)c1ccc(OCCCCCOc2ccc(C(=N)N)cc2)cc1 [Pentamidine]
[3]; [12]
  MIC: 0.05 mM (≈ 17 µg/mL)
[3]; [13]
  MIC: ~0.05 mM (≈ 17 µg/mL)
[5]; Mycobacterium tuberculosis
  MIC: 10.5 µM (≈ 3.58 µg/mL)
[6]; Homo sapiens, HepG2, 48 hours
  pIC50: 5.46
[4]
  MIC: 3.23 µM (≈ 1.1 µg/mL)

## CC(C)(N)Cc1ccccc1 [Phenteramine, Phentermine]
[4]
  MIC: 375 µM (≈ 56 µg/mL)

## O=C(c1ccc(OCCN2CCCCC2)cc1)c1c(-c2ccc(O)cc2)sc2cc(O)ccc12 [Raloxifene]
[5]
  MIC: 22.10 µM (≈ 10.5 µg/mL)
[1]
  MIC: 25.7 µM (≈ 12.2 µg/mL)
[6]; 48 hours
  pIC50: 4.70
[2]; [14]
  MIC: 312.5 µM (≈ 148 µg/mL)

## CN(CCOc1ccc(CC2SC(=O)NC2=O)cc1)c1ccccn1 (stereo not shown) [Rosiglitazone]
[3]; [12]
  MIC: ≥ 1.5 mM
[3]; [13]
  MIC: ~1.5 mM (≈ 536 µg/mL)
[4]
  MIC: 43.1 µM (≈ 15.4 µg/mL)

## CN[C@H]1CC[C@@H](c2ccc(Cl)c(Cl)c2)c2ccccc21 [Sertraline]
[1]
  MIC: 526.7 µM (≈ 161 µg/mL)
[2]; [11]
  MIC: 90 µM (≈ 27.6 µg/mL)

## CCCCCCCCNC(C)C(O)c1ccc(SC(C)C)cc1 (stereo not shown) [Sulocitidil]
[1]
  MIC: 87.22 µM (≈ 29.4 µg/mL)
[2]; [14]
  MIC: 625 µM (≈ 211 µg/mL)

## CC/C(=C(\c1ccccc1)c1ccc(OCCN(C)C)cc1)c1ccccc1 [Tamoxifen citrate]
[5]; Mycobacterium tuberculosis
  MIC: ≥ 100 µM
[1]
  MIC: 26.48 µM

## CCCCCCCCCCCCCCCC[N+](C)(C)CCN(Cc1ccc(OC)cc1)c1ncccn1 [Thonzonium, Thonzonium bromide]
[3]
  Solid MIC relative to liquid MIC: 5 fold
[3]; [12]
  MIC: ~0.005 mM
[4]
  MIC: 0.16 µM

## CN(C)CCOc1ccc(/C(=C(/CCCl)c2ccccc2)c2ccccc2)cc1 [Toremifene]
[1]
  MIC: 23.76 µM (≈ 9.65 µg/mL)
[2]; [11]
  MIC: 62.5 µM (≈ 25.4 µg/mL)

## CN(C)CCN(Cc1ccccc1)c1ccccn1 [Tripelennamine]
[3]
  Solid MIC relative to liquid MIC: 2 fold
[3]; [12]
  MIC: 0.1 mM (≈ 25.5 µg/mL)
[3]; [13]
  MIC: 0.1 mM (≈ 25.5 µg/mL)
[5]; Mycobacterium tuberculosis
  MIC: 49.3 µM (≈ 12.6 µg/mL)
[6]; Homo sapiens, HepG2, 48 hours
  pIC50: < 3.60
[4]
  MIC: 41.9 µM (≈ 10.7 µg/mL)

## CC[C@@H](CO)NCCN[C@@H](CC)CO [ethambutol]
[9]
  % survival: < 25%
[10]
  % survival: < 25%

## NNC(=O)c1ccncc1 [isoniazid]
[9]
  % survival: < 25%
[10]
  % survival: < 25%

## NC(=O)c1cnccn1 [pyrazinamide]
[10]
  % survival: < 25%

## CO[C@H]1/C=C/O[C@@]2(C)Oc3c(C)c(O)c4c(O)c(c(/C=N/N5CCN(C)CC5)c(O)c4c3C2=O)NC(=O)/C(C)=C\C=C\[C@H](C)[C@H](O)[C@@H](C)[C@@H](O)[C@@H](C)[C@H](OC(C)=O)[C@@H]1C [rifampicin]
[9]
  % survival: < 25%
[10]
  % survival: < 25%

## [H]/N=C(/N)N[C@H]1[C@H](O)[C@@H](O)[C@H](O[C@@H]2O[C@@H](C)[C@](O)(C=O)[C@H]2O[C@@H]2O[C@@H](CO)[C@H](O)[C@@H](O)[C@@H]2NC)[C@@H](N/C(N)=N\[H])[C@@H]1O [streptomycin]
[9]
  % survival: < 25%
[10]
  % survival: < 25%
